Results reported in ChEMBL document CHEMBL5154765, “Design, synthesis, and biological evaluation of novel spiro[pyrrolidine-2,3'-quinolin]-2'-one derivatives as potential chitin synthase inhibitors and antifungal agents” (Eur J Med Chem, 2022).
Converted amounts (≈) assume the structure as drawn.

What was measured:
Candida tropicalis = assay: Inhibition of Candida tropicalis ATCC750 chitin synthase at 300 ug/ml using UDP-GlcNAc as substrate incubated for 1 hr by microplate reader analysis relative to control; conditions: dose 300.0 µg/ml
[1] = Inhibition of Candida tropicalis ATCC750 chitin synthase using UDP-GlcNAc as substrate incubated for 1 hr by microplate reader analysis
Candida albicans [2] = assay: Antifungal activity against Candida albicans ATCC 76615 assessed as reduction in fungal growth incubated for 24 hrs by two fold broth dilution method; format: functional
Aspergillus flavus [3] = assay: Antifungal activity against Aspergillus flavus ATCC 16870 assessed as reduction in fungal growth incubated for 24 hrs by two fold broth dilution method; format: functional
Aspergillus fumigatus [4] = assay: Antifungal activity against Aspergillus fumigatus GIMCC 3.19 assessed as reduction in fungal growth incubated for 24 hrs by two fold broth dilution method; format: functional
Cryptococcus neoformans [5] = assay: Antifungal activity against Cryptococcus neoformans ATCC 32719 assessed as reduction in fungal growth incubated for 24 hrs by two fold broth dilution method; format: functional
Candida albicans [6] = assay: Antifungal activity against Candida albicans ATCC 76615 assessed as reduction in fungal growth in presence of sorbitol incubated for 24 hrs by two fold broth dilution method; format: functional
Aspergillus flavus [7] = assay: Antifungal activity against Aspergillus flavus ATCC 16870 assessed as reduction in fungal growth in presence of sorbitol incubated for 24 hrs by two fold broth dilution method; format: functional
Aspergillus fumigatus [8] = assay: Antifungal activity against Aspergillus fumigatus GIMCC 3.19 assessed as reduction in fungal growth in presence of sorbitol incubated for 24 hrs by two fold broth dilution method; format: functional
Cryptococcus neoformans [9] = assay: Antifungal activity against Cryptococcus neoformans ATCC 32719 assessed as reduction in fungal growth in presence of sorbitol incubated for 24 hrs by two fold broth dilution method; format: functional
Candida albicans [10] = assay: Antifungal activity against fluconazole resistant Candida albicans ATCC 76615 assessed as reduction in fungal growth incubated for 24 hrs by two fold broth dilution method; format: functional
Aspergillus flavus [11] = assay: Antifungal activity against fluconazole resistant Aspergillus flavus ATCC 16870 assessed as reduction in fungal growth incubated for 24 hrs by two fold broth dilution method; format: functional
Aspergillus fumigatus [12] = assay: Antifungal activity against fluconazole resistant Aspergillus fumigatus GIMCC 3.19 assessed as reduction in fungal growth incubated for 24 hrs by two fold broth dilution method; format: functional
Cryptococcus neoformans [13] = assay: Antifungal activity against fluconazole resistant Cryptococcus neoformans ATCC 32719 assessed as reduction in fungal growth incubated for 24 hrs by two fold broth dilution method; format: functional
Candida albicans [14] = assay: Antifungal activity against micafungin resistant Candida albicans ATCC 76615 assessed as reduction in fungal growth incubated for 24 hrs by two fold broth dilution method; format: functional
Candida albicans [15] = assay: Antifungal activity against Candida albicans ATCC 76615 incubated for 72 hrs in presence of fluconazole by checker board assay; format: functional
Aspergillus flavus [16] = assay: Antifungal activity against Aspergillus flavus ATCC 16870 incubated for 72 hrs in presence of fluconazole by checker board assay; format: functional
Aspergillus fumigatus [17] = assay: Antifungal activity against Aspergillus fumigatus GIMCC 3.19 incubated for 72 hrs in presence of fluconazole by checker board assay; format: functional
Cryptococcus neoformans [18] = assay: Antifungal activity against Cryptococcus neoformans ATCC 32719 incubated for 72 hrs in presence of fluconazole by checker board assay; format: functional
Candida albicans [19] = assay: Antifungal activity against Candida albicans ATCC 76615 assessed as fluconazole MIC incubated for 72 hrs by checker board assay; format: functional
Aspergillus flavus [20] = assay: Antifungal activity against Aspergillus flavus ATCC 16870 assessed as fluconazole MIC incubated for 72 hrs by checker board assay; format: functional
Aspergillus fumigatus [21] = assay: Antifungal activity against Aspergillus fumigatus GIMCC 3.19 assessed as fluconazole MIC incubated for 72 hrs by checker board assay; format: functional
Cryptococcus neoformans [22] = assay: Antifungal activity against Cryptococcus neoformans ATCC 32719 assessed as fluconazole MIC incubated for 72 hrs by checker board assay; format: functional
Cryptococcus neoformans [23] = assay: Synergistic antifungal activity against Cryptococcus neoformans ATCC 32719 assessed as fractional inhibitory concentration index incubated for 72 hrs in presence of fluconazole by checker board assay; format: functional
Candida albicans [24] = assay: Synergistic antifungal activity against Candida albicans ATCC 76615 assessed as fractional inhibitory concentration index incubated for 72 hrs in presence of fluconazole by checker board assay; format: functional
Aspergillus flavus [25] = assay: Synergistic antifungal activity against Aspergillus flavus ATCC 16870 assessed as fractional inhibitory concentration index incubated for 72 hrs in presence of fluconazole by checker board assay; format: functional
Aspergillus fumigatus [26] = assay: Synergistic antifungal activity against Aspergillus fumigatus GIMCC 3.19 assessed as fractional inhibitory concentration index incubated for 72 hrs in presence of fluconazole by checker board assay; format: functional
Candida albicans [27] = assay: Antifungal activity against Candida albicans ATCC 76615 incubated for 72 hrs in presence of polyoxin B by checker board assay; format: functional
Aspergillus flavus [28] = assay: Antifungal activity against Aspergillus flavus ATCC 16870 incubated for 72 hrs in presence of polyoxin B by checker board assay; format: functional
Aspergillus fumigatus [29] = assay: Antifungal activity against Aspergillus fumigatus GIMCC 3.19 incubated for 72 hrs in presence of polyoxin B by checker board assay; format: functional
Cryptococcus neoformans [30] = assay: Antifungal activity against Cryptococcus neoformans ATCC 32719 incubated for 72 hrs in presence of polyoxin B by checker board assay; format: functional
Candida albicans [31] = assay: Synergistic antifungal activity against Candida albicans ATCC 76615 assessed as fractional inhibitory concentration index incubated for 72 hrs in presence of polyoxin B by checker board assay; format: functional
Aspergillus flavus [32] = assay: Synergistic antifungal activity against Aspergillus flavus ATCC 16870 assessed as fractional inhibitory concentration index incubated for 72 hrs in presence of polyoxin B by checker board assay; format: functional
Aspergillus fumigatus [33] = assay: Synergistic antifungal activity against Aspergillus fumigatus GIMCC 3.19 assessed as fractional inhibitory concentration index incubated for 72 hrs in presence of polyoxin B by checker board assay; format: functional
Cryptococcus neoformans [34] = assay: Synergistic antifungal activity against Cryptococcus neoformans ATCC 32719 assessed as fractional inhibitory concentration index incubated for 72 hrs in presence of polyoxin B by checker board assay; format: functional
Candida albicans [35] = assay: Antifungal activity against Candida albicans ATCC 76615 assessed as polyoxin B MIC incubated for 72 hrs by checker board assay; format: functional
Aspergillus flavus [36] = assay: Antifungal activity against Aspergillus flavus ATCC 16870 assessed as polyoxin B MIC incubated for 72 hrs by checker board assay; format: functional
Aspergillus fumigatus [37] = assay: Antifungal activity against Aspergillus fumigatus GIMCC 3.19 assessed as polyoxin B MIC incubated for 72 hrs by checker board assay; format: functional
Cryptococcus neoformans [38] = assay: Antifungal activity against Cryptococcus neoformans ATCC 32719 assessed as polyoxin B MIC incubated for 72 hrs by checker board assay; format: functional

Compound	inhibition (Candida tropicalis)	IC50 [1]	MIC (Candida albicans [2])	MIC (Aspergillus flavus [3])	MIC (Aspergillus fumigatus [4])	MIC (Cryptococcus neoformans [5])	MIC (Candida albicans [6])	MIC (Aspergillus flavus [7])	MIC (Aspergillus fumigatus [8])	MIC (Cryptococcus neoformans [9])	MIC (Candida albicans [10])	MIC (Aspergillus flavus [11])	MIC (Aspergillus fumigatus [12])	MIC (Cryptococcus neoformans [13])	MIC (Candida albicans [14])	MIC (Candida albicans [15])	MIC (Aspergillus flavus [16])	MIC (Aspergillus fumigatus [17])	MIC (Cryptococcus neoformans [18])	MIC (Candida albicans [19])	other results
O=C(/C=C/C(=O)N1CCCC12Cc1ccccc1NC2=O)Nc1ccc(Cl)c(F)c1 (configuration not stated)	82.6%	110 µM	2 µg/mL (≈ 4.67 µM)	4 µg/mL (≈ 9.35 µM)	4 µg/mL (≈ 9.35 µM)	8 µg/mL (≈ 18.7 µM)	16 µg/mL	64 µg/mL	32 µg/mL	64 µg/mL	32 µg/mL (≈ 74.8 µM)	32 µg/mL (≈ 74.8 µM)	128 µg/mL (≈ 299 µM)	256 µg/mL (≈ 598 µM)	32 µg/mL (≈ 74.8 µM)	0.5 µg/mL	2 µg/mL	1 µg/mL	4 µg/mL	1 µg/mL	MIC (Aspergillus flavus [20]): 1 µg/mL; MIC (Aspergillus fumigatus [21]): 1 µg/mL; MIC (Cryptococcus neoformans [22]): 8 µg/mL; fractional inhibitory concentration index (FICI) (Cryptococcus neoformans [23]): 1.5; fractional inhibitory concentration index (FICI) (Candida albicans [24]): 0.5; fractional inhibitory concentration index (FICI) (Aspergillus flavus [25]): 0.63; fractional inhibitory concentration index (FICI) (Aspergillus fumigatus [26]): 0.5; MIC (Candida albicans [27]): 2 µg/mL; MIC (Aspergillus flavus [28]): 4 µg/mL; MIC (Aspergillus fumigatus [29]): 2 µg/mL; MIC (Cryptococcus neoformans [30]): 4 µg/mL; fractional inhibitory concentration index (FICI) (Candida albicans [31]): 2; fractional inhibitory concentration index (FICI) (Aspergillus flavus [32]): 2; fractional inhibitory concentration index (FICI) (Aspergillus fumigatus [33]): 0.75; fractional inhibitory concentration index (FICI) (Cryptococcus neoformans [34]): 0.75; MIC (Candida albicans [35]): 8 µg/mL; MIC (Aspergillus flavus [36]): 8 µg/mL; MIC (Aspergillus fumigatus [37]): 2 µg/mL; MIC (Cryptococcus neoformans [38]): 4 µg/mL
O=C(/C=C/C(=O)N1CCCC12Cc1ccccc1NC2=O)Nc1ccccc1[N+](=O)[O-] (configuration not stated)	80.9%	110 µM	4 µg/mL (≈ 9.51 µM)	4 µg/mL (≈ 9.51 µM)	4 µg/mL (≈ 9.51 µM)	16 µg/mL (≈ 38.1 µM)	32 µg/mL	64 µg/mL	32 µg/mL	64 µg/mL	64 µg/mL (≈ 152 µM)	64 µg/mL (≈ 152 µM)	64 µg/mL (≈ 152 µM)	64 µg/mL (≈ 152 µM)	64 µg/mL (≈ 152 µM)	2 µg/mL	2 µg/mL	1 µg/mL	8 µg/mL	2 µg/mL	MIC (Aspergillus flavus [20]): 2 µg/mL; MIC (Aspergillus fumigatus [21]): 2 µg/mL; MIC (Cryptococcus neoformans [22]): 4 µg/mL; fractional inhibitory concentration index (FICI) (Cryptococcus neoformans [23]): 1; fractional inhibitory concentration index (FICI) (Candida albicans [24]): 1; fractional inhibitory concentration index (FICI) (Aspergillus flavus [25]): 0.75; fractional inhibitory concentration index (FICI) (Aspergillus fumigatus [26]): 0.75; MIC (Candida albicans [27]): 2 µg/mL; MIC (Aspergillus flavus [28]): 4 µg/mL; MIC (Aspergillus fumigatus [29]): 2 µg/mL; MIC (Cryptococcus neoformans [30]): 4 µg/mL; fractional inhibitory concentration index (FICI) (Candida albicans [31]): 1; fractional inhibitory concentration index (FICI) (Aspergillus flavus [32]): 1.5; fractional inhibitory concentration index (FICI) (Aspergillus fumigatus [33]): 1.5; fractional inhibitory concentration index (FICI) (Cryptococcus neoformans [34]): 0.75; MIC (Candida albicans [35]): 4 µg/mL; MIC (Aspergillus flavus [36]): 4 µg/mL; MIC (Aspergillus fumigatus [37]): 8 µg/mL; MIC (Cryptococcus neoformans [38]): 8 µg/mL
O=C(/C=C/C(=O)N1CCCC12Cc1ccccc1NC2=O)Nc1ccc(F)cc1 (configuration not stated)	77.9%	130 µM	4 µg/mL (≈ 10.2 µM)	8 µg/mL (≈ 20.3 µM)	8 µg/mL (≈ 20.3 µM)	8 µg/mL (≈ 20.3 µM)	32 µg/mL	64 µg/mL	128 µg/mL	64 µg/mL	64 µg/mL (≈ 163 µM)	32 µg/mL (≈ 81.3 µM)	256 µg/mL (≈ 651 µM)	256 µg/mL (≈ 651 µM)	64 µg/mL (≈ 163 µM)	2 µg/mL	4 µg/mL	2 µg/mL	2 µg/mL	1 µg/mL	MIC (Aspergillus flavus [20]): 2 µg/mL; MIC (Aspergillus fumigatus [21]): 2 µg/mL; MIC (Cryptococcus neoformans [22]): 4 µg/mL; fractional inhibitory concentration index (FICI) (Cryptococcus neoformans [23]): 0.75; fractional inhibitory concentration index (FICI) (Candida albicans [24]): 0.75; fractional inhibitory concentration index (FICI) (Aspergillus flavus [25]): 0.75; fractional inhibitory concentration index (FICI) (Aspergillus fumigatus [26]): 0.75; MIC (Candida albicans [27]): 1 µg/mL; MIC (Aspergillus flavus [28]): 8 µg/mL; MIC (Aspergillus fumigatus [29]): 4 µg/mL; MIC (Cryptococcus neoformans [30]): 8 µg/mL; fractional inhibitory concentration index (FICI) (Candida albicans [31]): 0.75; fractional inhibitory concentration index (FICI) (Aspergillus flavus [32]): 1.5; fractional inhibitory concentration index (FICI) (Aspergillus fumigatus [33]): 0.75; fractional inhibitory concentration index (FICI) (Cryptococcus neoformans [34]): 1.5; MIC (Candida albicans [35]): 4 µg/mL; MIC (Aspergillus flavus [36]): 4 µg/mL; MIC (Aspergillus fumigatus [37]): 2 µg/mL; MIC (Cryptococcus neoformans [38]): 8 µg/mL
